Where two headings read alike, the source gives them in different places.
Assays:
Format in all cases: in vivo
[1] = test system: Italian ryegrass (Lolium multiflorum); test: Test C pre-/postemergence greenhouse test, plant response rating 0-100; conditions: Lolium multiflorum; for pest or weed control at 62 g/ha: 62 g ai/ha; for pest or weed control at 125 g/ha: 125 g ai/ha; for pest or weed control at 250 g/ha: 250 g ai/ha
Outline: (§1)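 Scores run from 0, no effect, to 100, complete control, assigned by eye after treated plants and controls spent 13 to 15 days in a greenhouse. Soil-applied treatment went onto freshly sown seed in loam and sand; foliar treatment hit seedlings at the 1- to 4-leaf stage.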

[2] = test system: blackgrass (Alopecurus myosuroides); test: as above; conditions: Alopecurus myosuroides; for pest or weed control at 62 g/ha: 62 g ai/ha; for pest or weed control at 125 g/ha: 125 g ai/ha; for pest or weed control at 250 g/ha: 250 g ai/ha
Outline: as §1

corn (Zea mays) = test: as above; conditions: Zea mays; for Corn plant response rating (crop injury, 0 = no effect, 100 = complete kill) at 250 g/ha: 250 g ai/ha
Outline: as §1

[3] = test system: galium (catchweed bedstraw, Galium aparine); test: as above; conditions: Galium; for pest or weed control at 62 g/ha: 62 g ai/ha; for pest or weed control at 125 g/ha: 125 g ai/ha; for pest or weed control at 250 g/ha: 250 g ai/ha
Outline: as §1

[4] = test system: giant foxtail (Setaria faberii); test: as above; conditions: Setaria faberi; for pest or weed control at 62 g/ha: 62 g ai/ha; for pest or weed control at 125 g/ha: 125 g ai/ha; for pest or weed control at 250 g/ha: 250 g ai/ha
Outline: as §1

[5] = test system: large (Lg) crabgrass (Digitaria sanguinalis); test: as above; conditions: Digitaria sanguinalis; for pest or weed control at 62 g/ha: 62 g ai/ha; for pest or weed control at 125 g/ha: 125 g ai/ha; for pest or weed control at 250 g/ha: 250 g ai/ha
Outline: as §1

[6] = test system: pigweed (Amaranthus retroflexus); test: as above; conditions: Amaranthus retroflexus; for pest or weed control at 62 g/ha: 62 g ai/ha; for pest or weed control at 125 g/ha: 125 g ai/ha; for pest or weed control at 250 g/ha: 250 g ai/ha
Outline: as §1

[7] = test system: ragweed (common ragweed, Ambrosia elatior); test: as above; conditions: Ambrosia artemisiifolia; for pest or weed control at 62 g/ha: 62 g ai/ha; for pest or weed control at 125 g/ha: 125 g ai/ha; for pest or weed control at 250 g/ha: 250 g ai/ha
Outline: as §1

soybean (Glycine max) = test: as above; conditions: Glycine max; for plant injury at 62 g/ha: 62 g ai/ha; for plant injury at 125 g/ha: 125 g ai/ha; for plant injury at 250 g/ha: 250 g ai/ha
Outline: as §1

[8] = test system: winter wheat (Triticum aestivum); test: as above; conditions: Triticum aestivum; for plant injury at 62 g/ha: 62 g ai/ha; for plant injury at 125 g/ha: 125 g ai/ha; for plant injury at 250 g/ha: 250 g ai/ha
Outline: as §1

[9] = test system: yellow nutsedge (Cyperus esculentus); test: as above; conditions: Cyperus; for pest or weed control at 62 g/ha: 62 g ai/ha; for pest or weed control at 125 g/ha: 125 g ai/ha; for pest or weed control at 250 g/ha: 250 g ai/ha
Outline: as §1

[10] = test system: chickweed (common chickweed, Stellaria media); test: Test C postemergence greenhouse test, plant response rating 0-100; conditions: Stellaria media, post-emergence
Outline: (§2)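 Potted in peat/vermiculite mix; postemergence application at 1–4 leaves (2–18 cm); greenhouse 13–15 d; visual score 0–100 relative to untreated plants; dash = no test result.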

kochia (Kochia scoparia) = test: as above; conditions: Bassia scoparia, post-emergence
Outline: as §2

wild oat (Avena fatua) = test: as above; conditions: Avena fatua, post-emergence
Outline: as §2

[11] = post-emergence, Postemergence, read-out: Plant response rating (0 to 100), Ryegrass, Italian
[12] = post-emergence, Postemergence, scale 0 to 100
[13] = post-emergence, Postemergence, 500 g ai/ha, scale 0 to 100
[14] = pre-emergence, Preemergence, read-out: Plant response rating, Ryegrass, Italian
[15] = pre-emergence, Preemergence, read-out: Plant response rating, Blackgrass
[16] = pre-emergence, Preemergence, 31 g ai/ha
[17] = post-emergence, Postemergence, read-out: Plant response rating (0 to 100), Galium
[18] = pre-emergence, Preemergence, read-out: Plant response rating, Galium
[19] = post-emergence, Postemergence, read-out: Plant response rating (0 to 100), Foxtail, Giant
[20] = pre-emergence, Preemergence, read-out: Plant response rating, Foxtail, Giant
[21] = post-emergence, Postemergence, read-out: Plant response rating (0 to 100), Crabgrass, Large
[22] = pre-emergence, Preemergence, read-out: Plant response rating, Crabgrass, Large
[23] = post-emergence, Postemergence, read-out: Plant response rating (0 to 100), Pigweed
[24] = pre-emergence, Preemergence, read-out: Plant response rating, Pigweed
[25] = post-emergence, Postemergence, read-out: Plant response rating (0 to 100), Ragweed
[26] = pre-emergence, Preemergence, read-out: Plant response rating, Ragweed
[27] = post-emergence, Postemergence, read-out: Plant response rating (0 to 100), Soybean
[28] = pre-emergence, Preemergence, read-out: Plant response rating, Soybean
[29] = post-emergence, Postemergence, read-out: Plant response rating (0 to 100), Wheat
[30] = pre-emergence, Preemergence, read-out: Plant response rating, Wheat
[31] = post-emergence, Postemergence, read-out: Plant response rating (0 to 100), Nutsedge, Yellow
[32] = pre-emergence, Preemergence, read-out: Plant response rating, Nutsedge, Yellow

## O=C(c1ccccc1)c1cn(CO)nc1-c1cc(Cl)cc(Cl)c1 [Compound 15, [3-(3,5-dichlorophenyl)-1-(hydroxymethyl)-1H-pyrazol-4-yl]phenylmethanone]
[1]; [11]
  pest or weed control at 62 g/ha: 0%
  pest or weed control at 125 g/ha: 0%
[1]; [12]
  pest or weed control at 250 g/ha: 0%
[1]; [13]
  pest or weed control at 500 g/ha: 0%
[1]; [14]
  pest or weed control at 62 g/ha: 0%
  pest or weed control at 125 g/ha: 0%
[1]; pre-emergence, Preemergence
  pest or weed control at 250 g/ha: 0%
[2]; post-emergence, Postemergence, read-out: Plant response rating (0 to 100), Blackgrass
  pest or weed control at 62 g/ha: 0%
[2]; post-emergence, Postemergence, scale 0 to 100, read-out: Plant response rating, Blackgrass
  pest or weed control at 125 g/ha: 0%
[2]; [12]
  pest or weed control at 250 g/ha: 0%
[2]; [13]
  pest or weed control at 500 g/ha: 0%
[2]; pre-emergence, Preemergence, 31 g ai/ha, read-out: Plant response rating, Blackgrass
  pest or weed control at 31 g/ha: 0%
[2]; [15]
  pest or weed control at 62 g/ha: 0%
  pest or weed control at 125 g/ha: 0%
[2]; pre-emergence, Preemergence
  pest or weed control at 250 g/ha: 0%
Corn (Zea mays); post-emergence, Postemergence, 62 g ai/ha
  plant injury at 62 g/ha: 0%
Corn (Zea mays); post-emergence, Postemergence, 125 g ai/ha
  plant injury at 125 g/ha: 0%
Corn (Zea mays); [12]
  Corn plant response rating (crop injury, 0 = no effect, 100 = complete kill) at 250 g/ha: 0%
Corn (Zea mays); [13]
  Corn plant response rating (crop injury, 0 = no effect, 100 = complete kill) at 500 g/ha: 0%
Corn (Zea mays); [16]
  Corn plant response rating (crop injury, 0 = no effect, 100 = complete kill) at 31 g/ha: 0%
Corn (Zea mays); pre-emergence, Preemergence, 62 g ai/ha
  Corn plant response rating (crop injury, 0 = no effect, 100 = complete kill) at 62 g/ha: 0%
Corn (Zea mays); pre-emergence, Preemergence, 125 g ai/ha
  Corn plant response rating (crop injury, 0 = no effect, 100 = complete kill) at 125 g/ha: 0%
Corn (Zea mays); pre-emergence, Preemergence
  Corn plant response rating (crop injury, 0 = no effect, 100 = complete kill) at 250 g/ha: 0%
[3]; [17]
  pest or weed control at 62 g/ha: 0%
  pest or weed control at 125 g/ha: 0%
[3]; [12]
  pest or weed control at 250 g/ha: 10%
[3]; [13]
  pest or weed control at 500 g/ha: 45%
[3]; pre-emergence, Preemergence, 31 g ai/ha, read-out: Plant response rating, Galium
  pest or weed control at 31 g/ha: 0%
[3]; [18]
  pest or weed control at 62 g/ha: 0%
  pest or weed control at 125 g/ha: 0%
[3]; pre-emergence, Preemergence
  pest or weed control at 250 g/ha: 0%
[4]; [19]
  pest or weed control at 62 g/ha: 0%
  pest or weed control at 125 g/ha: 0%
[4]; [12]
  pest or weed control at 250 g/ha: 0%
[4]; [13]
  pest or weed control at 500 g/ha: 10%
[4]; pre-emergence, Preemergence, 31 g ai/ha, read-out: Plant response rating, Foxtail, Giant
  pest or weed control at 31 g/ha: 0%
[4]; [20]
  pest or weed control at 62 g/ha: 0%
  pest or weed control at 125 g/ha: 0%
[4]; pre-emergence, Preemergence
  pest or weed control at 250 g/ha: 0%
[5]; [21]
  pest or weed control at 62 g/ha: 0%
  pest or weed control at 125 g/ha: 0%
[5]; [12]
  pest or weed control at 250 g/ha: 0%
[5]; [13]
  pest or weed control at 500 g/ha: 0%
[5]; pre-emergence, Preemergence, 31 g ai/ha, read-out: Plant response rating, Crabgrass, Large
  pest or weed control at 31 g/ha: 0%
[5]; [22]
  pest or weed control at 62 g/ha: 0%
  pest or weed control at 125 g/ha: 0%
[5]; pre-emergence, Preemergence
  pest or weed control at 250 g/ha: 0%
[6]; [23]
  pest or weed control at 62 g/ha: 90%
  pest or weed control at 125 g/ha: 100%
[6]; [12]
  pest or weed control at 250 g/ha: 100%
[6]; [13]
  pest or weed control at 500 g/ha: 100%
[6]; [16]
  pest or weed control at 31 g/ha: 100%
[6]; [24]
  pest or weed control at 62 g/ha: 100%
  pest or weed control at 125 g/ha: 100%
[6]; pre-emergence, Preemergence
  pest or weed control at 250 g/ha: 100%
[7]; [25]
  pest or weed control at 62 g/ha: 60%
  pest or weed control at 125 g/ha: 75%
[7]; [12]
  pest or weed control at 250 g/ha: 85%
[7]; [13]
  pest or weed control at 500 g/ha: 85%
[7]; [26]
  pest or weed control at 62 g/ha: 35%
  pest or weed control at 125 g/ha: 95%
[7]; pre-emergence, Preemergence
  pest or weed control at 250 g/ha: 100%
Soybean (Glycine max); [27]
  plant injury at 62 g/ha: 0%
  plant injury at 125 g/ha: 0%
Soybean (Glycine max); [12]
  plant injury at 250 g/ha: 0%
Soybean (Glycine max); [13]
  plant injury at 500 g/ha: 5%
Soybean (Glycine max); [28]
  plant injury at 62 g/ha: 0%
  plant injury at 125 g/ha: 0%
Soybean (Glycine max); pre-emergence, Preemergence
  plant injury at 250 g/ha: 0%
[8]; [29]
  plant injury at 62 g/ha: 0%
  plant injury at 125 g/ha: 0%
[8]; [12]
  plant injury at 250 g/ha: 0%
[8]; [13]
  plant injury at 500 g/ha: 0%
[8]; [30]
  plant injury at 62 g/ha: 0%
  plant injury at 125 g/ha: 0%
[8]; pre-emergence, Preemergence
  plant injury at 250 g/ha: 0%
[9]; [31]
  pest or weed control at 62 g/ha: 0%
  pest or weed control at 125 g/ha: 0%
[9]; [12]
  pest or weed control at 250 g/ha: 0%
[9]; [13]
  pest or weed control at 500 g/ha: 0%
[9]; [16]
  pest or weed control at 31 g/ha: 0%
[9]; [32]
  pest or weed control at 62 g/ha: 0%
  pest or weed control at 125 g/ha: 0%
[9]; pre-emergence, Preemergence
  pest or weed control at 250 g/ha: 0%
[10]; 62 g ai/ha
  pest or weed control at 62 g/ha: 95%
[10]; 125 g ai/ha
  pest or weed control at 125 g/ha: 95%
[10]; 250 g ai/ha, scale 0 to 100
  pest or weed control at 250 g/ha: 100%
[10]; 500 g ai/ha, scale 0 to 100
  pest or weed control at 500 g/ha: 100%
Kochia (Kochia scoparia); 62 g ai/ha
  pest or weed control at 62 g/ha: 70%
Kochia (Kochia scoparia); 125 g ai/ha
  pest or weed control at 125 g/ha: 85%
Kochia (Kochia scoparia); 250 g ai/ha, scale 0 to 100
  pest or weed control at 250 g/ha: 85%
Kochia (Kochia scoparia); 500 g ai/ha, scale 0 to 100
  pest or weed control at 500 g/ha: 90%
Wild oat (Avena fatua); 62 g ai/ha
  pest or weed control at 62 g/ha: 0%
Wild oat (Avena fatua); 125 g ai/ha
  pest or weed control at 125 g/ha: 0%
Wild oat (Avena fatua); 250 g ai/ha, scale 0 to 100
  pest or weed control at 250 g/ha: 0%
Wild oat (Avena fatua); 500 g ai/ha, scale 0 to 100
  pest or weed control at 500 g/ha: 0%

— patent US10167262B2, “Herbicidal substituted 3-arylpyrazoles” (FMC CORPORATION, priority 2014, dated 2019)
